Laboratory results published in paper PMC2410169, “N-hexanoyl-sphingomyelin potentiates in vitro doxorubicin cytotoxicity by enhancing its cellular influx” (British Journal of Cancer, 2004).
pEC50: −log10 of the molar value. Read-outs that look alike come from different tables or passages of the source.

Tests used:
BAEC [1] = type: cell-based, bovine; details: for Effect on doxorubicin uptake (in words): assay as for C6-SM, Table 1
Procedure: (§1) For intracellular doxorubicin measurements, cells were cultured in flat-bottom 96-well plates. At confluence, cells were changed to a serum-free medium and exposed to 50 μM doxorubicin during 60 min (unless indicated otherwise). After washing with ice-cold PBS, cells were lysed in 1% (w v^−1) Triton X-100 in water. Native fluorescence intensities were then measured by a Perkin-Elmer Victor Wallac II fluorescence microplate reader, using λex 485 nm and λem 535 nm filters. Additional probes and drugs that were tested for cellular uptake during 60 min incubations, either in the absence or presence of lipid, were hydrazide-AF488 (35 μM, λex 485 nm, λem 535 nm), sulphorodamine-101 (400 μM, λex 355 nm, λem 620 nm), propidium iodide (300 μM, λex 355 nm, λem 535 nm), o-phtaldialdehyde (1 mM, λex 485 nm, λem 535 nm), topotecan (30 μM, λex 355 nm, λem 535 nm), epirubicin (50 μM, λex 485 nm, λem 535 nm), bisbenzimidine (10 μM, λex 355 nm, λem 460 nm), camptothecin (30 μM, λex 355 nm, λem 460 nm), daunorubicin (25 μM, λex 485 nm, λem 535 nm) and idarubicin (20 μM, λex 485 nm, λem 535 nm).

[2] = system: A431 (epidermoid carcinoma); test: Cellular doxorubicin accumulation, fluorimetry of cell lysates; type: cell-based, human; details: 50 μM doxorubicin, 60 min
Procedure: as §1

[3] = system: KB (oesophagal carcinoma); test: as above; type: cell-based, human; details: 50 μM doxorubicin, 60 min
Procedure: as §1

[4] = system: MCF-7 (mammary adenocarcinoma); test: as above; type: cell-based, human; details: 50 μM doxorubicin, 60 min
Procedure: as §1

[5] = system: control renal fibroblasts; test: Cellular doxorubicin accumulation in control kidney fibroblasts; type: cell-based, mice; details: Table 2, C6-SM 10 μM, 60 min
Procedure: (§2) The following cell types were cultured in Dulbecco's modified Eagle's medium (DMEM) containing 10% (v v^−1) foetal calf serum: primary bovine aortic endothelial cells (BAEC; passage 14–19), kindly provided by Dr A Haimovitz-Friedman (Memorial Sloan-Kettering Cancer Center, New York City NY, USA); MCF-7, KB and A431 carcinoma cells, purchased from the American Type Culture Collection (Manassas VA, USA); SV40 large-T antigen-immortalised kidney fibroblasts from Mrp1/Mdr1a/Mdr1b triple knockout mice and control renal fibroblasts ([Wijnholds et al, 2000]; kindly provided by Dr AH Schinkel, The Netherlands Cancer Institute, Amsterdam). […] All culture media were supplemented with 100 U ml^−1 penicillin, 100 μg ml^−1 streptomycin and 4 mM L-glutamine. For intracellular doxorubicin measurements, cells were cultured in flat-bottom 96-well plates. […] After washing with ice-cold PBS, cells were lysed in 1% (w v^−1) Triton X-100 in water. Native fluorescence intensities were then measured by a Perkin-Elmer Victor Wallac II fluorescence microplate reader, using λex 485 nm and λem 535 nm filters.

[6] = system: kidney fibroblasts from Mrp1/Mdr1a/Mdr1b triple knockout mice; test: Cellular doxorubicin accumulation in ABC-transporter knockout fibroblasts; type: cell-based
Procedure: as §2

A431 cells = test: Cell viability, MTT assay; type: cell-based, human; details: for pEC50: Homo sapiens, 60 min exposure, 48 h further culture, read-out: Doxorubicin EC50
Procedure: After centrifugation (3000 rpm, 10 min) supernatants were removed.

BAEC [7] = test: Plasma membrane integrity: uptake of fluid phase marker hydrazide-AF488; type: cell-based, bovine; details: 10 μM C6-SM
Procedure: Confluent and serum-free BAEC were incubated for 120 min in the presence of C6-SM and 175 μM of the membrane impermeant fluid phase marker hydrazide-AF488. After washing, cells were lysed in PBS containing 1% (w v^−1) Triton X-100 and fluorescence was measured at λex 485 nm and λem 535 nm. […] All data were corrected for protein contents, as determined with the BCA assay ([Smith et al, 1985]).

BAEC [8] = test: Clathrin-mediated endocytosis: AF488-transferrin uptake; type: cell-based, bovine; details: 10 μM C6-SM, 120 min
Procedure: (§3) To monitor clathrin- and raft-mediated endocytic activity, confluent BAEC were allowed to take up AF488-transferrin (150 μg ml^−1) or AF488-CTB (75 μg ml^−1), respectively. Incubations were performed under serum-free conditions in the presence of 10 μM C6-SM during 120 min. Cells were then washed and lysed in PBS containing 1% (v v^−1) Triton X-100. Fluorescence was then measured at λex 485 nm and λem 535 nm.

BAEC [9] = test: Raft-mediated endocytosis: AF488-CTB uptake; type: cell-based, bovine; details: 10 μM C6-SM, 120 min
Procedure: as §3

BAEC [10] = system: BAEC
Procedure: (§4) For viability assessment, cells were cultured in flat-bottom 96-well plates. After experimental treatments, 100 μg of the mitochondrial dehydrogenase substrate MTT was added to each well ([Carmichael et al, 1987]). Cells were then incubated for 60 min at 37°C. After centrifugation (3000 rpm, 10 min) supernatants were removed. The precipitated blue formazan products were then dissolved in 100 μl DMSO and absorbencies were read in a Bio-Tek Instruments EL 340 photospectrometric microplate reader at 540 nm. Background absorbencies were subtracted and values from untreated control cells were set at 100% viability.
(§5) After washing away remaining extracellular drug and lipid, cells were cultured for another 48 h. Viability was then assessed by the MTT assay, which relies on the fact that only mitochondria of viable cells have the capacity to convert the MTT substrate ([Carmichael et al, 1987]).

BAEC [11] = test: cells; details: Bos taurus
Procedure: as §4, §5

BAEC [12] = test: Cellular uptake of fluorescent drugs and probes with or without C6-SM; type: cell-based, bovine; details: 10 μM C6-SM, 60 min
Procedure: as §1

[13] = Lipophilicity: 1-octanol/water partitioning; type: physicochemical; details: 1-octanol/water partition ratio
Procedure: Partitioning of 10–50 μM drug or probe was monitored in a two-phase system consisting of 1 ml 1-octanol and 1 ml water. After addition of the compound, tubes were vortexed and centrifuged (3000 rpm, 5 min, 20°C). Aliquots of both the organic and the aqueous phases were taken for fluorimetric quantification, as described under Cellular drug accumulation. As a measure of lipophilicity, the 1-octanol/water partitioning ratio was calculated for each compound and expressed on a log scale ([Washington et al, 2001]).

[14] = 10 μM lipid analogue with 50 μM doxorubicin, 60 min, control = no lipid, no ethanol, n=3

Compound: CCCCCCCCCC(=O)NC(CN1CCOCC1)C(O)c1ccccc1 (racemic) [PPMP]
- Doxorubicin (% of control±s.d.) (BAEC [1]; Table 4, PPMP 30 μM, 96 h pretreatment, no C6-SM): 166.5±22.5 % of control

Compound: CCCCCCCCCCCCC/C=C/C(O)C(COP(=O)([O-])OCC[N+](C)(C)C)NC(C)=O (stereo not drawn) [C2-sphingomyelin, N-acetyl-sphingomyelin]
- Doxorubicin (% of control±s.d.) (BAEC [1]; [14]): 129.6±19.6 % of control
- Effect on doxorubicin uptake (in words) (BAEC [1]): moderate effect

Compound: CCCCCCCCCCCCCC=CC(O)C(COP(=O)([O-])OCC[N+](C)(C)C)NC(=O)CCCCC (stereo not drawn) [C6-SM, N-hexanoyl-sphingomyelin]
- C6-SM concentration at which the plateau in doxorubicin-uptake enhancement and cytotoxicity is reached (BAEC [1]): about 8 μM
- Enhanced doxorubicin uptake after washing away C6-SM not taken up by the cells (BAEC [1]): remained
- Increase of intracellular doxorubicin over control levels (BAEC [1]; 10 μM C6-SM, 50 μM doxorubicin, incubation periods of 15–60 min): up to 300%
- Doxorubicin (% of control±s.d.) (BAEC [1]; [14]): 328.3±24.4 % of control
- Lipid concentration giving a significant increase in drug uptake (BAEC [1]; 50 μM doxorubicin, 60 min): 2 µM
- Doxorubicin (% of control±s.d.) (BAEC [1]; Table 2, C6-SM 10 μM + ATP depletion): 410.9±157.0 % of control
- Doxorubicin (% of control±s.d.) (BAEC [1]; Table 2, C6-SM 10 μM + MK571 12.5 μM): 323.3±23.0 % of control
- Doxorubicin (% of control±s.d.) (BAEC [1]; Table 2, C6-SM 10 μM + PSC833 5 μM): 278.1±40.7 % of control
- Doxorubicin (% of control±s.d.) (BAEC [1]; Table 2, C6-SM 10 μM alone, 60 min, n=3): 369.0±113.0 % of control
- Doxorubicin (% of control±s.d.) (BAEC [1]; Table 4, C6-SM 10 μM after CDX 10 mM, 30 min): 264.7±72.1 % of control
- Doxorubicin (% of control±s.d.) (BAEC [1]; Table 4, C6-SM 10 μM after PPMP 30 μM, 96 h): 340.7±78.6 % of control
- Doxorubicin (% of control±s.d.) (BAEC [1]; Table 4, C6-SM 10 μM after bSMase 200 mU ml^−1, 2 h): 386.2±74.7 % of control
- Doxorubicin (% of control±s.d.) (BAEC [1]; Table 4, C6-SM 10 μM, no pretreatment, n=3): 353.3±62.6 % of control
- Maximum increase in doxorubicin uptake over control values (BAEC [1]; at 6 μM C6-SM, 50 μM doxorubicin, 60 min): 300%
- C6-SM-stimulated doxorubicin uptake under conditions that block endocytosis (BAEC [1]; cells at 4°C or depleted for ATP (sodium azide and deoxyglucose)): remained unaffected
- Active concentrations (BAEC [1]; doxorubicin uptake enhancement): 2 to 6 µM
- Drug uptake-enhancing effect after removal of membrane-inserted C6-SM (BAEC [1]; hydrolysis by exogenous bSMase or BSA back-exchange, not shown): strongly diminished
- Enhanced uptake of doxorubicin (BAEC [1]; low micromolar amounts of lipid (abstract)): up to 300%
- Concentration-dependent C6-SM effect on doxorubicin accumulation compared with BAEC [2]: Comparable results
- Concentration-dependent C6-SM effect on doxorubicin accumulation compared with BAEC [3]: Comparable results
- Concentration-dependent C6-SM effect on doxorubicin accumulation compared with BAEC [4]: Comparable results
- Doxorubicin (% of control±s.d.) [5]: 331.8±50.2 % of control
- Increase compared to doxorubicin uptake in the absence of the lipid analogue ([6]; like in normal fibroblasts): three- to four-fold increase
- Increase in drug sensitivity (A431 cells; A431, with C6-SM vs none): 14 fold
- Hydrazide-AF488 uptake compared to 100% control uptake (BAEC [7]): 97.4±18.2%
- Transferrin uptake compared to 100% uptake under control conditions (BAEC [8]): 67±36%
- CTB uptake compared to 100% uptake under control conditions (BAEC [9]): 80±23%
- Toxicity of C6-SM itself (BAEC [10]): virtually nontoxic
- Increase in doxorubicin sensitivity (BAEC [10]; BAEC, 10 μM C6-SM vs none): seven-fold increase in sensitivity

Compound: CCCCCCCCCCCCC/C=C/[C@@H](O)[C@H](CO)NC(=O)CCCCC [C6-ceramide]
- Doxorubicin (% of control±s.d.) (BAEC [1]; [14]): 105.6±6.5 % of control
- Effect on doxorubicin uptake (in words) (BAEC [1]): little or no effect

Compound: CCCCCC(=O)OCC(COP(=O)([O-])OCC[N+](C)(C)C)OC(=O)CCCCC (stereo not drawn) [C6-phosphatidylcholine, dihexanoyl-phosphatidylcholine]
- Doxorubicin (% of control±s.d.) (BAEC [1]; [14]): 101.0±28.2 % of control
- Effect on doxorubicin uptake (in words) (BAEC [1]): completely without effect

Compound: CCCCCCCCCCCCC/C=C/[C@@H](O)[C@H](COP(=O)(O)O)NC(=O)CCCCCCC [C8-ceramide 1-phosphate, C8-ceramide-1-phosphate]
- Doxorubicin (% of control±s.d.) (BAEC [1]; [14]): 116.5±20.6 % of control
- Effect on doxorubicin uptake (in words) (BAEC [1]): little or no effect

Compound: COc1cccc2c1C(=O)c1c(O)c3c(c(O)c1C2=O)C[C@@](O)(C(=O)CO)C[C@@H]3O[C@H]1C[C@H](N)[C@H](O)[C@H](C)O1 [Doxorubicin, doxorubicin]
- Doxorubicin (% of control±s.d.) (BAEC [1]; Table 2, ATP depletion (2-deoxy-D-glucose + sodium azide, 90 min), no C6-SM): 108.2±46.7 % of control
- Doxorubicin (% of control±s.d.) ([6]; Table 2, no C6-SM, relative to control fibroblasts): 101.7±14.3 % of control
- pEC50 (A431 cells; A-431, A431, with C6-SM): 6.89
- pEC50 (A431 cells; A-431, A431, without C6-SM): 5.74
- pEC50 (BAEC [11]; read-out: Doxorubicin EC50 for BAEC toxicity, absence of C6-SM, 60 min exposure, 48 h further culture): 5.40
- pEC50 (BAEC [11]; read-out: Doxorubicin EC50 for BAEC toxicity, with 10 μM C6-SM, 60 min exposure, 48 h further culture): 6.22

Compound: CN(C)C(=O)CCSC(SCCC(=O)O)c1cccc(/C=C/c2ccc3ccc(Cl)cc3n2)c1 (stereo not drawn) [MK571]
- Doxorubicin (% of control±s.d.) (BAEC [1]; Table 2, MK571 12.5 μM, no C6-SM): 103.5±30.2 % of control

Compound: C/C=C/C[C@@H](C)C(=O)[C@H]1C(=O)N[C@@H](C(C)C)C(=O)N(C)CC(=O)N(C)[C@@H](CC(C)C)C(=O)N[C@@H](C(C)C)C(=O)N(C)[C@@H](CC(C)C)C(=O)N[C@@H](C)C(=O)N[C@H](C)C(=O)N(C)[C@@H](CC(C)C)C(=O)N(C)[C@@H](CC(C)C)C(=O)N(C)[C@@H](C(C)C)C(=O)N1C [PSC833]
- Doxorubicin (% of control±s.d.) (BAEC [1]; Table 2, PSC833 5 μM, no C6-SM): 76.0±15.6 % of control

Compound: CCCCCCCCCCCCC/C=C/[C@@H](O)[C@@H](N)COP(=O)([O-])OCC[N+](C)(C)C [Sphingosinephosphorylcholine, sphingosylphosphorylcholine]
- Doxorubicin (% of control±s.d.) (BAEC [1]; [14]): 143.2±10.0 % of control
- Effect on doxorubicin uptake (in words) (BAEC [1]): moderate effect

Compound: CC[C@@]1(O)C(=O)OCc2c1cc1n(c2=O)Cc2cc3ccccc3nc2-1 [camptothecin]
- Sensitivity towards C6-SM uptake enhancement (BAEC [12]): mostly insensitive to C6-SM

Compound: COc1cccc2c1C(=O)c1c(O)c3c(c(O)c1C2=O)C[C@@](O)(C(C)=O)C[C@@H]3O[C@H]1C[C@H](N)[C@H](O)[C@H](C)O1 [daunorubicin]
- Sensitivity towards C6-SM uptake enhancement (BAEC [12]): mostly insensitive to C6-SM
- Lipophilicity compared with doxorubicin [13]: significantly higher

Compound: COc1cccc2c1C(=O)c1c(O)c3c(c(O)c1C2=O)C[C@@](O)(C(=O)CO)C[C@@H]3O[C@H]1C[C@H](N)[C@@H](O)[C@H](C)O1 [epirubicin]
- Sensitivity towards C6-SM uptake enhancement (BAEC [12]): C6-SM sensitive

Compound: CC(=O)[C@]1(O)Cc2c(O)c3c(c(O)c2[C@@H](O[C@H]2C[C@H](N)[C@H](O)[C@H](C)O2)C1)C(=O)c1ccccc1C3=O [idarubicin]
- Sensitivity towards C6-SM uptake enhancement (BAEC [12]): mostly insensitive to C6-SM
- Lipophilicity compared with doxorubicin [13]: significantly higher

Compound: CC[C@@]1(O)C(=O)OCc2c1cc1n(c2=O)Cc2cc3c(CN(C)C)c(O)ccc3nc2-1 [topotecan]
- Sensitivity towards C6-SM uptake enhancement (BAEC [12]): C6-SM sensitive

Compound: methyl-β-cyclodextrin [CDX]
- Doxorubicin (% of control±s.d.) (BAEC [1]; Table 4, CDX 10 mM, 30 min pretreatment, no C6-SM): 113.0±28.1 % of control

Compound: sphingomyelin [Endogenous SM]
- Effect on doxorubicin uptake (in words) (BAEC [1]): does not work
